From PubChem BioAssay (NCI)
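The concentration for 50% growth inhibition is given as GI50. TGI marks complete inhibition of growth.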

Experiments:
Assay in all cases: growth of human tumour cells (NCI), 384-well format
HL-60(TB) leukemia = system: HL-60(TB) leukemia
UACC-62 melanoma = system: UACC-62 melanoma
SF-268 CNS = system: SF-268 CNS
BT-549 breast = system: BT-549 breast
SW-620 colon = system: SW-620 colon
HOP-62 NSCLC = system: HOP-62 NSCLC
KM12 colon = system: KM12 colon
A498 renal = system: A498 renal
SK-MEL-2 melanoma = system: SK-MEL-2 melanoma
M14 melanoma = system: M14 melanoma
HT29 colon = system: HT29 colon
LOX IMVI melanoma = system: LOX IMVI melanoma
RXF 393 renal = system: RXF 393 renal
ACHN renal = system: ACHN renal
SK-MEL-28 melanoma = system: SK-MEL-28 melanoma
HCT-116 colon = system: HCT-116 colon
A549 NSCLC = system: A549 NSCLC
OVCAR-4 ovarian = system: OVCAR-4 ovarian
NCI-H460 NSCLC = system: NCI-H460 NSCLC
COLO 205 colon = system: COLO 205 colon
SNB-75 CNS = system: SNB-75 CNS
MALME-3M melanoma = system: MALME-3M melanoma
HCC-2998 colon = system: HCC-2998 colon
NCI-H522 lung = system: NCI-H522 lung
SNB-19 CNS = system: SNB-19 CNS
OVCAR-8 ovarian = system: OVCAR-8 ovarian
PC-3 prostate = system: PC-3 prostate
NCI-H23 lung = system: NCI-H23 lung
MDA-MB-435 melanoma = system: MDA-MB-435 melanoma
HOP-92 NSCLC = system: HOP-92 NSCLC
SK-MEL-5 melanoma = system: SK-MEL-5 melanoma
NCI/ADR-RES ovarian = system: NCI/ADR-RES ovarian
U251 glioblastoma = system: U251 glioblastoma
OVCAR-3 ovarian = system: OVCAR-3 ovarian
NCI-H226 lung = system: NCI-H226 lung
SN12C renal = system: SN12C renal
RPMI-8226 leukemia = system: RPMI-8226 leukemia
TK-10 renal = system: TK-10 renal
DU-145 prostate = system: DU-145 prostate
EKVX NSCLC = system: EKVX NSCLC
NCI-H322M lung = system: NCI-H322M lung
SR leukemia = system: SR leukemia
MDA-MB-231 breast = system: MDA-MB-231 breast
SF-539 CNS = system: SF-539 CNS
MCF7 breast = system: MCF7 breast
OVCAR-5 ovarian = system: OVCAR-5 ovarian
SK-OV-3 ovarian = system: SK-OV-3 ovarian

## Cc1nc(NC(=O)N2CCC[C@H]2C(N)=O)sc1-c1ccnc(C(C)(C)C(F)(F)F)c1
HL-60(TB) leukemia
  GI50: 0.727 µM
  TGI: 9.24 µM
UACC-62 melanoma
  GI50: 10.2 µM
  TGI: 24 µM
SF-268 CNS
  GI50: 12.9 µM
  TGI: 61.2 µM
BT-549 breast
  GI50: 5.81 µM
  TGI: 28.6 µM
SW-620 colon
  GI50: 8.53 µM
  TGI: 40.2 µM
HOP-62 NSCLC
  GI50: 18 µM
  TGI: > 94.3 µM
KM12 colon
  GI50: 25.8 µM
  TGI: > 92.8 µM
A498 renal
  GI50: 8.13 µM
  TGI: 37.7 µM
SK-MEL-2 melanoma
  GI50: 12.4 µM
  TGI: 26.2 µM
M14 melanoma
  GI50: 15 µM
  TGI: > 74.2 µM
HT29 colon
  GI50: 1.58 µM
  TGI: 33.4 µM
LOX IMVI melanoma
  GI50: 7.55 µM
  TGI: 28 µM
RXF 393 renal
  GI50: 5.57 µM
  TGI: 22.5 µM
ACHN renal
  GI50: 9.43 µM
  TGI: 48.7 µM
SK-MEL-28 melanoma
  GI50: 7.87 µM
  TGI: > 83 µM
HCT-116 colon
  GI50: 7.62 µM
  TGI: 42.8 µM
A549 NSCLC
  GI50: 6.07 µM
  TGI: 23.7 µM
OVCAR-4 ovarian
  GI50: 7.73 µM
  TGI: 40.7 µM
NCI-H460 NSCLC
  GI50: 2.13 µM
  TGI: 43 µM
COLO 205 colon
  GI50: 7.15 µM
  TGI: 43.4 µM
SNB-75 CNS
  GI50: 1.17 µM
  TGI: 8.53 µM
MALME-3M melanoma
  GI50: 6.66 µM
  TGI: 29.4 µM
HCC-2998 colon
  GI50: 6.67 µM
  TGI: 25 µM
NCI-H522 lung
  GI50: 4.78 µM
  TGI: 23.8 µM
SNB-19 CNS
  GI50: 28.6 µM
  TGI: > 100 µM
OVCAR-8 ovarian
  GI50: 14.3 µM
  TGI: 88.7 µM
PC-3 prostate
  GI50: 5.73 µM
  TGI: 25.4 µM
NCI-H23 lung
  GI50: 12.1 µM
  TGI: 44.4 µM
MDA-MB-435 melanoma
  GI50: 24.6 µM
  TGI: > 80.3 µM
HOP-92 NSCLC
  GI50: 3.09 µM
  TGI: 20.6 µM
SK-MEL-5 melanoma
  GI50: 6.54 µM
  TGI: 14.9 µM
NCI/ADR-RES ovarian
  GI50: 16.5 µM
  TGI: 71.9 µM
U251 glioblastoma
  GI50: 10.3 µM
  TGI: 39.5 µM
OVCAR-3 ovarian
  GI50: 6.07 µM
  TGI: 27.8 µM
NCI-H226 lung
  GI50: 8.88 µM
  TGI: 32.5 µM
SN12C renal
  GI50: 14.7 µM
  TGI: 80.1 µM
RPMI-8226 leukemia
  GI50: 7.05 µM
  TGI: 21.7 µM
TK-10 renal
  GI50: 4.71 µM
  TGI: 28.5 µM
DU-145 prostate
  GI50: 10.8 µM
  TGI: 33.7 µM
EKVX NSCLC
  GI50: 5.55 µM
  TGI: 24.8 µM
NCI-H322M lung
  GI50: 4.6 µM
  TGI: 26.6 µM
SR leukemia
  GI50: 3.57 µM
  TGI: 15.6 µM
MDA-MB-231 breast
  GI50: 13.5 µM
  TGI: 48.7 µM
SF-539 CNS
  GI50: 12.5 µM
  TGI: 38.3 µM
MCF7 breast
  GI50: 0.205 µM
  TGI: 17.8 µM
OVCAR-5 ovarian
  GI50: 5.5 µM
  TGI: 37.4 µM
SK-OV-3 ovarian
  GI50: 0.725 µM
  TGI: 12.1 µM
